From paper doi:10.1101/2025.06.18.657655, “Fibulin-4 is highly expressed in metastatic breast cancer and can serve as a target of peptide-based imaging probes and experimental therapeutics” (bioRxiv, 2025)
Bridge positions count the residues as written; N and C are the ends. Square brackets hold non-standard residues; d marks the D form. Ends that are not written are not given here. * marks the point of attachment. Biotin = O=C1N[C@H]2[C@H](CS[C@H]2CCCCC(=O)*)N1

What was measured:
[1] = test system: HEK293 cells ectopically expressing FBLN4; experiment: Fluorescent peptide binding to HEK293 cells; format: cell-based; conditions: Figure S2A
[2] = test system: invasive and metastatic cancer cells in tissue sections; experiment: Overlay assay on paraffin tissue sections
Experimental: Octet binding assays were performed with an Octet RED96 system (ForteBio) as described ([13]). Briefly, the peptides were loaded onto streptavidin resin-coated biosensors (Sartorius Lab, 18–5019) at a concentration of 20 ug/ml in 1x kinetic buffer for 5 min. […] For all experiments, Ka (1/Ms) and Kd (1/s) were measured. FortéBio’s data analysis software was employed to fit the binding curve to a 1:1 binding model in order to extract association and dissociation rates. Overlay assay on tissues was performed by incubating AZDye555-BLMP6 (12.5 ug/ml) for 2 hr and washing with PBS before fixation with 4% paraformaldehyde.

[3] = molecular target: T1, FBLN4 (Mus musculus, UniProt Q9WVJ9); experiment: Affinity purification of FBLN4 from 4T1 cell extract on BLMP6-loaded beads; format: binding; conditions: biotinylated BLMP6 immobilized on streptavidin-coated beads; not isolated on control beads
T1 construct: proteins extracted from 4T1 cells were incubated with beads pre-loaded with BLMP6; endogenous in cells; host or cells: 4T1 mouse breast cancer cells
T1 sequence (Q9WVJ9 28-443): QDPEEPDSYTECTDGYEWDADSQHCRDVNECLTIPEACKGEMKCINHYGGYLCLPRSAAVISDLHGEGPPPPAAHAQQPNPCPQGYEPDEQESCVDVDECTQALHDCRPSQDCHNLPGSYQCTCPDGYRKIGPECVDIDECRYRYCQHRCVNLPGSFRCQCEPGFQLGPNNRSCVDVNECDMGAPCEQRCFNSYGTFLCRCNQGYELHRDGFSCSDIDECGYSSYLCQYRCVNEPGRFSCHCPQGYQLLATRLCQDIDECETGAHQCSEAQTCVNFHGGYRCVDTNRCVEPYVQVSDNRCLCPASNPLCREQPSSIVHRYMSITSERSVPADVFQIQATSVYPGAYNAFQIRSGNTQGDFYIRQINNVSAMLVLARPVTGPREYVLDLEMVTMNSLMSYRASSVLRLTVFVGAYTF
Experimental: To test if BLMP6 binds to FBLN4 in vitro, we used Octet to perform the biolayer interferometry assay. […] To confirm BLMP6 binding to FBLN4 expressed by cancer cells, proteins extracted from 4T1 cells were incubated with beads pre-loaded with BLMP6. […] To confirm BLMP6 binding to FBLN4 in a genetic model, we used CRISPR/Cas9 to make 4T1 FBLN4 knockout (KO) cells confirmed by RT-PCR (Figure 1E). FBLN4-KO and control 4T1-luc cells were grafted into mice, and once metastases were detected by bioluminescence, phage displaying BLMP6 ([6]) was injected. After 30 min of circulation, heart perfusion was performed, and lungs were recovered. Section histopathology confirmed metastasis formation in all lungs, indicating FBLN4 expression is not required for cancer cell colonization and growth at the secondary site.

[4] = test system: B16F10 lung metastases; experiment: B16F10 experimental lung metastasis model, treatment; format: in vivo, mouse; conditions: B16F10-luc iv
Text: (§1) Animal studies were approved by the IACUC of UTHealth. Spontaneous cancer progression to metastases was modeled by injecting 2×10^4 4T1 cells into the mammary fat pad of 10-week-old female Balb/c mice (Jackson Laboratory) with a 31-gauge needle. Metastatic progression was monitored with bioluminescence imaging. For lung metastasis modeling, Balb/c mice were tail vein-injected with 2.5×10^5 4T1-luc WT or FBLN4-KO cells, C57BL/6 mice (Jackson) were tail vein-injected with 1×10^5 B16F10 cells, and athymic Nude-Foxn1nu (Envigo) mice were tail vein-injected with 1×10^5 MDA-MB-231-luc-GFP cells. For phage-peptide homing analysis, mice were injected into the tail vein with 5×10^10 transducing units (TU) of phage-BLMP6 ([6]). After 30 min of circulation, heart perfusion with 10 ml of PBS was performed and lung sections were processed. For PET imaging studies, mice were intravenously injected with 7.4 MBq (200 μCi, 5 nmol) of ^68Ga-labeled DOTA-BLMP6 and imaged 45–60 min later using Albira small-animal PET/CT scanner (Bruker After imaging, the mice were euthanized, the tissues of interest were harvested and probe homing was analyzed using a Cobra II automated gamma counter (Packard) and expressed as percentage of the injected dose per gram tissue (%ID/g tissue).
To test MMAE-BLMP6 efficacy for cancer suppression, we first used the B16F10 experimental lung metastasis model. […]

[5] = test system: MDA-MB-231-luc-GFP lung metastases; experiment: MDA-MB-231 experimental lung metastasis model, treatment; format: in vivo, mouse
Text: as §1
To test MMAE-BLMP6 efficacy for cancer suppression, we first used the B16F10 experimental lung metastasis model. Three MMAE-BLMP6 (50 ug) or PBS subcutaneous injections were done over days 1–6 and four additional MMAE-BLMP6 (100 ug) or PBS subcutaneous injections on days 8–18 after iv injection of B16F10-luc cells (Figure 5A). […] While vehicle-treated mice began dying on day 15, with most animals perishing by day 21, MMAE-BLMP6-treated mice only started showing metastases on day 15 by IVIS and survived 2 to 3 days longer (Figure 5A). In the MDA-MB-231-luc-GFP experimental lung metastasis model, a similar trend was observed (Figure 5C).

[6] = Stability in mouse serum; format: in vitro ADME; conditions: Figure S4B-C
Text: To test MMAE-BLMP6 efficacy in vivo, we first analyzed its stability in mouse serum. […] We then used the experimental lung metastasis model of B16F10 cells injected intravenously to produce lung metastases.

[7] = molecular target: FBLN4 of mouse 4T1 cancer cells (mouse (endogenous in 4T1)) (UniProt Q9WVJ9)
[8] = molecular target: T2, Fibulin-4 protein (Abcam, 182808) (UniProt O95967 24-443); experiment: BLI
T2 chain: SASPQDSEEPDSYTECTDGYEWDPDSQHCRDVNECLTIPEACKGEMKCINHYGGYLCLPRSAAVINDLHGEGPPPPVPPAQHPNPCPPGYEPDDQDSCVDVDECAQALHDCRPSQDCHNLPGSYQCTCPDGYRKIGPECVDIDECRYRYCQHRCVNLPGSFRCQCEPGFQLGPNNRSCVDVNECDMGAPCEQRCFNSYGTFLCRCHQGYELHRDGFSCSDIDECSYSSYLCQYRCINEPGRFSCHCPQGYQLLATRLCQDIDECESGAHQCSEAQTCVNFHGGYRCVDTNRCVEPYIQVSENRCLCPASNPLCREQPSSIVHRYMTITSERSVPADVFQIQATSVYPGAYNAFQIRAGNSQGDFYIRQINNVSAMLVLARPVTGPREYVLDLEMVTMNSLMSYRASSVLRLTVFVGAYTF

## AZDye555-BLMP6 (AZDye555-CRAGVGRGC; bridge 1-9 (inferred))
[1]
  binding to HEK293 cells ectopically expressing FBLN4: confirmed to bind
  binding to non-transfected control HEK293 cells: not to non-transfected control cells
[2]; 12.5 ug/ml overlay, 2 hr, paraffin sections
  binding to lung sections from mice grafted with 4T1 cells: selectively bound to metastatic lesions but not to normal lung
[2]; 12.5 ug/ml overlay, paraffin sections, N-cadherin IF
  binding to lung sections from mice with MDA-MB-231 experimental lung metastases: binds to a subpopulation of tumor cells expressing N-cadherin
[2]; human FFPE tissue arrays: 50 primary, 40 metastatic, 10 adjacent control biopsies
  binding across human breast cancer tissue array cores: largely concordant with N-cadherin expression

## CRAGVGRGC (disulfide 1-9 (inferred)) [BLMP6, cyclic peptide … that homes to disseminating tumor cells]
[3]
  FBLN4 isolated from 4T1 cell proteins on peptide-loaded beads, immunoblotting with anti-FBLN4 antibodies: the predicted 49 kDa band was observed

## MMAE-BLMP6: monomethyl auristatin E coupled to all-D BLMP6 via PEG4, valine-citrulline and PAB linker ([dC][dR][dA]G[dV]G[dR]G[dC]; disulfide 1-9 (inferred); also: MMAE coupled via PAB-Cit-Val-PEG4 linker, site not given here)
[4]; sc 50 ug x3 over days 1-6 and 100 ug x4 on days 8-18, versus PBS, at day 5
  metastasis burden, bioluminescence analysis by IVIS: metastasis suppression
[4]; sc 50 ug x3 then 100 ug x4, vehicle mice began dying on day 15, most by day 21
  survival longer than vehicle-treated mice: 2 to 3 days
[5]; MDA-MB-231-luc-GFP iv, one of the treated mice
  survival beyond controls, one treated mouse: 9 days
[5]; MDA-MB-231-luc-GFP iv, sc treatment versus PBS, days 12 and 21
  metastasis growth, bioluminescence imaging: suppressed metastasis growth
[5]; athymic mice, 50 to 100 μg sc, at day 15, treatment interrupted 6 days, re-initiated at 15 μg daily
  tolerability, clinical observation: signs of sickness
[6]
  time after which a secondary degradation peak appeared in mouse serum: 6 h
[6]; after 1 hr
  stability in mouse serum, peaks observed: single MMAE-BLMP6 peak was observed

B1: MMAE-BLMP6 (peptide)
peptide: [dC][dR][dA]G[dV]G[dR]G[dC]
modifications: disulfide 1-9 (inferred); also: MMAE coupled via PAB-Cit-Val-PEG4 linker, site not given here
[7]
  IC50 of cell viability (CellTiter-Blue), 4T1 cells, 24 h after adding MMAE-BLMP6: 500 nM

B2: biotinylated BLMP6, cyclic peptide CRAGVGRGC (peptide)
peptide: Biotin-CRAGVGRGC
modifications: disulfide 1-9 (inferred)
[8]
  koff: 3.18e-07 s⁻¹
